According to US7749496B2, “Neuronal regeneration” (Case Western Reserve University, priority 2001, dated 2010):

Columns and labels:
Assay type in all cases: cell-based
[1] = tested on: NG108-15 cells; assay: Neurite crossing of laminin/aggrecan (CSPG) boundary after protein transduction; conditions: for neurite extension across laminin/CSPG boundary: vs controls
Description: We developed a second model to observe the effects of substrate-bound GAGs or CSPGs on neurite extension. Briefly, alternating lanes of the CSPG aggrecan and laminin were created on 60 mm diameter tissue culture dishes using a modified version of the Bonhoeffer method. Thus, neurite extension of cells across laminin/CSPG boundaries could be observed in these coated tissue culture dishes. Such laminin/CSPG coated dishes were used for the experiments summarized in the following examples and in FIGS. 7-10.
NG108-15 cells (available from ATCC, Manassas, Va.) were removed from culture flasks and resuspended in Neurobasal-A media (Invitrogen, Carlsbad, Calif.) supplemented with N-2, L-glutamine, and 1% penicillin/streptomycin. 2×10^4 NG108-15 cells were added to a laminin/CSPG coated dish as described in Example 8. After approximately 4 hours, the cells formed lanes adhering to the laminin lanes. The ability of the cells to migrate and/or extend processes across the laminin/CSPG boundary was then assessed following transduction of the cells with control proteins, with various Class I activator proteins, or with a Class 2 inhibitor protein.
Cells were transduced using the CHARIOT protein transduction system with any one of the following: GST control alone, activated Cdc42-GST, dominant negative Cdc42-GST, activated Rac1-GST, dominant negative Rac1-GST, activated RhoA-GST, or the RhoA inhibitor C3 transferase (Cytoskeleton, Denver, Colo.). The activated and dominant negative variants used for these experiments were as following: activated Cdc42=Q61L Cdc42, dominant negative Cdc42=T17N Cdc42, activated Rac1=Q61L Rac1, dominant negative Rac1=T17N […], activated RhoA=Q63 L RhoA. Following protein transduction, cells were placed in humidified incubators at 37° C., and 5% CO2 and were […] after 48 hours.

[2] = tested on: NG108 cells; assay: Two dimensional coverslip with alternating stripes of chondroitin sulfate, crossing of short axis; conditions: protein delivered with Chariot protein transduction system; unmodified cells less than 10%; FIG. 5A
Description: We developed a two-dimensional model to observe the effects of substrate-bound GAGs or CSPGs on neurite extension. Briefly, the surfaces of glass coverslips were modified using 3-aminopropyltriethoxysilane, which binds amines to the surface. Through a two-step covalent coupling procedure, chondroitin sulfate C(CS-C) was crosslinked to the amines on the surface of the coverslip. First, CS-C was linked to EDAC, a zero-length crosslinker, that reacts with amine groups. With the aid of the Bonhoeffer matrix the CS-C-EDAC solution was passed into the microchannels incubated at room temperature for 30 minutes and removed. This process was repeated three additional times with fresh CS-C-EDAC solution. The CS-C covalently couple to the amines on the modified coverslip via the EDAC.
The coverslips were sonicated for 5 minutes to remove any CS-C that was not covalently bound to the coverslip. The coverslips were sterilized in 70% ethanol, and 15,000 cells were seeded on top of the micropatterned area and incubated at 37° C., 5% CO2. The behavior of the seeded cells can now be examined in the presence or absence of agents which either influence the cells themselves (e.g., Class I activators, Class II inhibitors, etc.) or agents which alter the CS-C. […]

[3] = tested on: E9 chick DRG; assay: Three-dimensional layered agarose gel, neurite crossing of gel interfaces; conditions: for percentage of DRG neurites that cross the interface between 2 layers: interface of 1% agarose and 2% agarose modified with chondroitin sulfate, compared to non-GAG agarose interface, FIG. 3
Description: This three-dimensional system allows observation of neuronal cell behavior at gel interfaces. In this example, layer 1 is a control interface composed of 1% agarose, layer 2 contains the neuronal explant, in this case an explant of dorsal root ganglia (DRG) in 1% agarose, and layer 3 is 2% agarose containing chondroitin sulfate-B. The layer 1/layer 2 interface provides a control agarose/agarose interface, while the layer 2/layer 3 interface provides an agarose/CS-GAG rich agarose interface. The ability of neurites to cross the interface between layer 2/layer 3 can be measured.
Agarose gels were made by dissolving SeaPrep agarose (FMC Corp) in pH 7.4 PBS. Agarose solutions were sterilized by p assing through a 0.45 u m filter, gelled and stored at 4° C. Prior to use, the gels were degelled at 65° C., cooled to 37° C., and gelled.
For construction of three dimensional system, agarose gels were layered in a rectangular culture dish. 1% liquid agarose was poured into the dish, and chilled to allow layer 1 to gel. After layer 1 had gelled, liquid agarose containing several E9 chick DRG were poured onto layer 1, and chilled to form layer 2. After layer 2 had gelled, 2% liquid agarose containing chondroitin sulfate-B was poured onto layer 2 and chilled to form layer 3.
To maintain the cells in this culture system, culture medium consisting of DMEM supplemented with 10% fetal bovine serum, 1% penicillin-streptomycin, and 50 ng/mL nerve growth factor was added to the top of the gel.
The ability of neuronal cells to extend processes across the interfaces was quantified by determining the percentage of neurites that successfully crossed the interface using light microscopy.

[4] = Chariot transduction, imaged after 48 hours, vs untransduced or GST alone, FIG. 7

## activated RhoA: Q63L RhoA constitutively active Rho family GTPase variant, GST protein
[1]; [4]
  percentage of neurites that cross a laminin/aggrecan boundary: did not significantly promote

## constitutively active Cdc42: Q61L mutation of human Cdc42 (SEQ ID NO: 2), constitutively active Rho family GTPase protein, delivered by Chariot protein transduction
[1]; 4 μg/mL, Chariot transduction, vs untransduced cells, FIG. 8
  percentage of neurites that cross a laminin/aggrecan boundary: statistically significant increase
[1]; 1, 2, 3, 4 μg/mL, Chariot transduction, FIG. 8
  dose dependence of neurite extension across laminin/CSPG boundary: dose dependent increase
[1]; [4]
  percentage of neurites that cross a laminin/aggrecan boundary: statistically significant increase
[2]
  percentage of NG108 cells that cross the short axis of chondroitin sulfate GAG coverslip: approximately 50%

## dominant negative Cdc42: T17N Cdc42 dominant negative Rho family GTPase variant, GST protein
[1]; [4]
  percentage of neurites that cross a laminin/aggrecan boundary: did not significantly promote

## chondroitin-sulfate B
[3]
  percentage of DRG neurites that cross the interface between 2 layers: statistically significant decrease
[3]; listed as CS-GAG
  percentage of DRG neurites that cross the interface between 2 layers: significantly inhibited
[3]; layer 3 is 2% agarose modified with chondroitin sulfate B, FIG. 2C
  extension of neuronal processes at the layer 2/layer 3 interface: inhibited

## C3 transferase
[1]; 2 μg/mL, FIG. 10
  neurite extension across laminin/CSPG boundary: statistically significant
[1]; 4 μg/mL, FIG. 10
  neurite extension across laminin/CSPG boundary: statistically significant
[1]; [4]
  percentage of neurites that cross a laminin/aggrecan boundary: statistically significant increase
[1]; various concentrations, in the presence of Chariot, FIG. 10
  dose dependence of neurite crossing of laminin/aggrecan boundary: statistically significant and dose dependent increase
